Laboratory results reported in PubChem BioAssay AID256 (DTP/NCI, 2004).
Several values for one entry are separate records, joined by “and”; a condition that tells them apart may be missing. Equal values may be shown once. Inconclusive results and toxic doses are left out. The calls were made as follows: active = survival T/C of 150% or more; inactive = T/C below 125% in these data.

Test system: CD2F1 mice, L1210 leukemia ip, survival T/C
Assay: NCI In Vivo Anticancer Drug Screen. Data for tumor model L1210 Leukemia (intraperitoneal) in CD2F1 (CDF1) mice
Settings: higher = longer survival
In short: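 Ratio T/C, where T is the treated-group value and C the vehicle-dosed control value, from mice implanted with a transplantable tumor.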

[1] = endpoint: mean survival time, dose: 25.0 mg/kg/injection, schedule: Q01DX009 (ip), vehicle: saline
[2] = endpoint: mean survival time, dose: 100.0 mg/kg/injection, schedule: Q04DX003 (ip), vehicle: saline with Tween-80
[3] = endpoint: mean survival time, dose: 200.0 mg/kg/injection, schedule: Q04DX003 (ip), vehicle: saline with Tween-80
[4] = endpoint: mean survival time, dose: 400.0 mg/kg/injection, schedule: Q04DX003 (ip), vehicle: saline with Tween-80
[5] = endpoint: mean survival time, dose: 100.0 mg/kg/injection, schedule: Q01DX001 (ip), vehicle: saline
[6] = endpoint: mean survival time, dose: 200.0 mg/kg/injection, schedule: Q01DX001 (ip), vehicle: saline
[7] = endpoint: mean survival time, dose: 400.0 mg/kg/injection, schedule: Q01DX001 (ip), vehicle: saline
[8] = endpoint: mean survival time, dose: 100.0 mg/kg/injection, schedule: Q01DX001 (ip), vehicle: saline with Tween-80
[9] = endpoint: mean survival time, dose: 200.0 mg/kg/injection, schedule: Q01DX001 (ip), vehicle: saline with Tween-80
[10] = endpoint: mean survival time, dose: 400.0 mg/kg/injection, schedule: Q01DX001 (ip), vehicle: saline with Tween-80
[11] = endpoint: mean survival time, dose: 50.0 mg/kg/injection, schedule: Q01DX009 (ip), vehicle: saline with Tween-80
[12] = endpoint: mean survival time, dose: 100.0 mg/kg/injection, schedule: Q01DX009 (ip), vehicle: saline with Tween-80
[13] = endpoint: mean survival time, dose: 200.0 mg/kg/injection, schedule: Q01DX009 (ip), vehicle: saline with Tween-80
[14] = endpoint: mean survival time, dose: 100.0 mg/kg/injection, schedule: Q04DX003 (ip), vehicle: Klucel (hydroxypropylcellulose) (HPC)
[15] = endpoint: mean survival time, dose: 200.0 mg/kg/injection, schedule: Q04DX003 (ip), vehicle: Klucel (hydroxypropylcellulose) (HPC)
[16] = endpoint: mean survival time, dose: 400.0 mg/kg/injection, schedule: Q04DX003 (ip), vehicle: Klucel (hydroxypropylcellulose) (HPC)
[17] = endpoint: mean survival time, dose: 400.0 mg/kg/injection, schedule: Q01DX009 (ip), vehicle: saline with Tween-80
[18] = endpoint: mean survival time, dose: 25.0 mg/kg/injection, schedule: Q01DX009 (ip), vehicle: saline with Tween-80

Measured: T/C

CC(=O)OC1C(CO)OC2C1Oc1nc(=N)c(F)cn12 (stereo unspecified)
inactive: endpoint: mean survival time, dose: 3.13 mg/kg/injection, schedule: Q01DX009 (ip), vehicle: saline 101 % of control | endpoint: mean survival time, dose: 6.25 mg/kg/injection, schedule: Q01DX009 (ip), vehicle: saline 106 % of control | endpoint: mean survival time, dose: 12.5 mg/kg/injection, schedule: Q01DX009 (ip), vehicle: saline 110 % of control | [1] 116 % of control

O=C(c1ccccc1)N(C(=O)c1ccccc1)C1CCCCC1
inactive: [2] 100 % of control | [3] 94 % of control | [4] 93 % of control

O=C(CSCC(=O)c1ccc(Br)cc1)c1ccc(Br)cc1
inactive: [5] 112 % of control | [6] 98 % of control | [7] 101 % of control

C1CCC(CCCC(CCCC2CCCCC2)CCCC2CCCCC2)CC1
inactive: [8] 94 % of control | [9] 91 % of control | [10] 88 % of control

C/C(=C/C(C)(C)C)C1CCCCC1C (stereo unspecified)
inactive: [11] 100 % of control | [12] 100 % of control | [13] 116 % of control

c1cnc(N2CC2)nn1
inactive: [5] 105 % of control | [6] 113 % of control

CCCCCCC[CH2][Sn]1([CH2]CCCCCCC)[O]C2C(CO)OC(n3ccc(=O)[nH]c3=O)C2[O]1 (stereo unspecified)
inactive: endpoint: mean survival time, dose: 12.5 mg/kg/injection, schedule: Q01DX005 (ip), vehicle: other 100 % of control | endpoint: mean survival time, dose: 25.0 mg/kg/injection, schedule: Q01DX005 (ip), vehicle: other 90 % of control | endpoint: mean survival time, dose: 50.0 mg/kg/injection, schedule: Q01DX005 (ip), vehicle: other 91 % of control | endpoint: mean survival time, dose: 100.0 mg/kg/injection, schedule: Q01DX005 (ip), vehicle: other 94 % of control | endpoint: mean survival time, dose: 200.0 mg/kg/injection, schedule: Q01DX005 (ip), vehicle: other 91 % of control

Cc1ccc(CS(=O)(=O)C(Cl)(Cl)c2ccc(C)cc2)cc1
inactive: [14] 94 % of control | [15] 100 % of control | [16] 94 % of control

CC(C)(Cl)S(=O)c1ccccc1 (stereo unspecified)
inactive: [2] 93 % of control | [3] 93 % of control | [4] 95 % of control

ClCc1ccc(Cl)c(Cl)c1
inactive: [14] 102 % of control | [15] 102 % of control | [16] 102 % of control

CN(C1=CC(=O)C(C)(C)c2ccccc21)C1CCCCC1
inactive: [2] 95 % of control | [3] 91 % of control | [4] 94 % of control

COC(=O)C1(C)CCCC2(C)C1CCC13OC(=O)C(C(C)C)(CC21)C3O (stereo unspecified)
inactive: [12] 94 % of control | [13] 88 % of control | [17] 92 % of control

O=C(/C=C/C=C/c1ccccc1)c1ccc(Cl)cc1
inactive: endpoint: mean survival time, dose: 37.5 mg/kg/injection, schedule: Q04DX003 (ip), vehicle: saline with Tween-80 97 % of control | endpoint: mean survival time, dose: 75.0 mg/kg/injection, schedule: Q04DX003 (ip), vehicle: saline with Tween-80 97 % of control | endpoint: mean survival time, dose: 150.0 mg/kg/injection, schedule: Q04DX003 (ip), vehicle: saline with Tween-80 89 % of control | [3] 90 % of control | endpoint: mean survival time, dose: 300.0 mg/kg/injection, schedule: Q04DX003 (ip), vehicle: saline with Tween-80 93 % of control

NC(C(=O)O)C(CC(=O)O)C(=O)O (stereo unspecified)
inactive: endpoint: mean survival time, dose: 100.0 mg/kg/injection, schedule: Q04DX002 (ip), vehicle: saline 111 % of control | endpoint: mean survival time, dose: 200.0 mg/kg/injection, schedule: Q04DX002 (ip), vehicle: saline 106 % of control | endpoint: mean survival time, dose: 400.0 mg/kg/injection, schedule: Q04DX002 (ip), vehicle: saline 106 % of control

Cc1cc(Cl)cc([N+](=O)[O-])c1
inactive: [2] 92 % of control | [3] 88 % of control | [4] 87 % of control

COc1cc(OC)c(NC(=O)Oc2ccc(C=O)cc2OC)cc1Cl
inactive: [11] 86 % of control | [12] 96 % of control

Cc1ccc(P(=S)(c2ccc(C)c3ccccc23)c2ccc(C)c3ccccc23)c2ccccc12
inactive: [5] 91 % of control | [6] 97 % of control | [7] 91 % of control

O=C(COc1ccccc1)NC(=S)Nc1ccc(Cl)cc1Cl
inactive: [18] 100 % of control | [11] 100 % of control

O=C(Sc1cccc2ccccc12)c1ccc([N+](=O)[O-])cc1
inactive: [8] 105 % of control | [9] 92 % of control | [10] 101 % of control

Cc1cccc(-c2cc(Cl)c3cc(S(=O)(=O)F)ccc3n2)c1
inactive: [12] 94 % of control | [2] 104 % of control | [13] 93 % of control | [3] 101 % of control | [17] 100 % of control | [4] 92 % of control

CC[n+]1ccc(Nc2ccc(/C=C/c3ccc4cc(Nc5cc[n+](CC)cc5)ccc4[n+]3CC)cc2)cc1
inactive: endpoint: mean survival time, dose: 2.5 mg/kg/injection, schedule: Q01DX009 (oral), vehicle: saline 98 % of control | endpoint: mean survival time, dose: 5.0 mg/kg/injection, schedule: Q01DX009 (oral), vehicle: saline 102 % of control | endpoint: mean survival time, dose: 10.0 mg/kg/injection, schedule: Q01DX009 (oral), vehicle: saline 88 % of control

COC1CCCCC1SCSC1CCCCC1OC (stereo unspecified)
inactive: [2] 91 % of control | [3] 87 % of control | [4] 89 % of control

CC(=O)NC(CC(=O)O)C(=O)NNC(=O)c1ccccc1O (stereo unspecified)
inactive: endpoint: mean survival time, dose: 25.0 mg/kg/injection, schedule: Q01DX009 (ip), vehicle: Klucel (hydroxypropylcellulose) (HPC) 108 % of control | endpoint: mean survival time, dose: 50.0 mg/kg/injection, schedule: Q01DX009 (ip), vehicle: Klucel (hydroxypropylcellulose) (HPC) 115 % of control | endpoint: mean survival time, dose: 100.0 mg/kg/injection, schedule: Q01DX009 (ip), vehicle: Klucel (hydroxypropylcellulose) (HPC) 104 % of control

OCc1cn2c(c1CO)CCC2
inactive: endpoint: mean survival time, dose: 12.5 mg/kg/injection, schedule: Q01DX009 (ip), vehicle: water 105 % of control | endpoint: mean survival time, dose: 22.0 mg/kg/injection, schedule: Q01DX009 (ip), vehicle: other 108 % of control | endpoint: mean survival time, dose: 25.0 mg/kg/injection, schedule: Q01DX009 (ip), vehicle: water 113 % of control | endpoint: mean survival time, dose: 33.0 mg/kg/injection, schedule: Q01DX009 (ip), vehicle: other 113 % of control | endpoint: mean survival time, dose: 50.0 mg/kg/injection, schedule: Q01DX009 (ip), vehicle: other 123 % of control | endpoint: mean survival time, dose: 75.0 mg/kg/injection, schedule: Q01DX009 (ip), vehicle: other 105 % of control

Nc1nc(N)nc(-c2ccncc2)n1
inactive: endpoint: mean survival time, dose: 12.5 mg/kg/injection, schedule: Q01DX009 (ip), vehicle: saline with Tween-80 102 % of control | [18] 106 % of control | [11] 102 % of control

CN1C(=O)c2ccccc2C1(/N=C/c1ccccc1)c1ccccc1 (stereo unspecified)
inactive: [2] 96 % of control | [3] 96 % of control | [4] 96 % of control

CN(C)CCCCNc1ccc(NCCCCN(C)C)c2c1C(=O)c1c(O)ccc(O)c1C2=O
inactive: [1] 102 % of control | endpoint: mean survival time, dose: 50.0 mg/kg/injection, schedule: Q01DX009 (ip), vehicle: saline 98 % of control | endpoint: mean survival time, dose: 100.0 mg/kg/injection, schedule: Q01DX009 (ip), vehicle: saline 93 % of control

O=C(O)CC1(O)CCCCC1c1ccccc1 (stereo unspecified)
inactive: [2] 104 % of control | [3] 105 % of control | [4] 88 % of control

CC(=O)OCC1OC(OC(C)=O)C(NC(=O)Nc2cccc(N)c2)C(OC(C)=O)C1OC(C)=O (stereo unspecified)
inactive: endpoint: mean survival time, dose: 5.0 mg/kg/injection, schedule: Q04DX003 (ip), vehicle: water 102 % of control | endpoint: mean survival time, dose: 10.0 mg/kg/injection, schedule: Q04DX003 (ip), vehicle: water 96 % of control | endpoint: mean survival time, dose: 20.0 mg/kg/injection, schedule: Q04DX003 (ip), vehicle: water 96 % of control | endpoint: mean survival time, dose: 40.0 mg/kg/injection, schedule: Q04DX003 (ip), vehicle: water 96 % of control | endpoint: mean survival time, dose: 80.0 mg/kg/injection, schedule: Q04DX003 (ip), vehicle: water 98 % of control

COC(=O)[C@@]12OC[C@]34[C@H]([C@@H](O)[C@@H]1O)[C@@]1(C)CC(=O)C(OC(=O)CC(=O)OC5=C(C)[C@@H]6C[C@H]7OC(=O)[C@H](OC(=O)/C=C(\C)C(C)C)[C@H]8[C@]9(C(=O)OC)OC[C@]78[C@H]([C@@H](O)[C@@H]9O)[C@@]6(C)CC5=O)=C(C)[C@@H]1C[C@H]3OC(=O)[C@H](OC(=O)/C=C(\C)C(C)C)[C@@H]24
inactive: endpoint: median survival time, dose: 0.37 mg/kg/injection, schedule: Q01DX009 (ip), vehicle: saline + Tween-80 + alcohol 113 % of control | endpoint: median survival time, dose: 0.38 mg/kg/injection, schedule: Q01DX009 (ip), vehicle: saline + Tween-80 + alcohol 112 % of control | endpoint: median survival time, dose: 0.75 mg/kg/injection, schedule: Q01DX009 (ip), vehicle: saline + Tween-80 + alcohol 115 % of control and 121 % of control | endpoint: median survival time, dose: 1.5 mg/kg/injection, schedule: Q01DX009 (ip), vehicle: saline + Tween-80 + alcohol 121 % of control and 112 % of control
